Source: patent US20100168176A1, “NOVEL COMPOUNDS, PHARMACEUTICAL COMPOSITIONS CONTAINING SAME, AND METHODS OF USE FOR SAME” (FASGEN LLC, priority 2006, published 2010)
In brackets after ≈: the same amount, converted by molar mass.

Columns and labels:
[1] = system: MCF-7 human breast cancer cells; assay: [14C]acetate incorporation into total lipids; type: cell-based; conditions: MCF7
Procedure: Measurement of [^14 C]acetate Incorporation into Total Lipids and Determination of IC50 of Compounds
This assay measures the incorporation of [^14C]acetate into total lipids and is a measure of fatty acid synthesis pathway activity in vitro. It is utilized to measure inhibition of fatty acid synthesis in vitro.
MCF-7 human breast cancer cells cultured as above, are plated at 5×10^4 cells per well in 24-well plates. Following overnight incubation, the compounds to be tested, solubilized in DMSO, are added at 5, 10, and 20 μg/ml in triplicate, with lower concentrations tested if necessary. DMSO is added to triplicate wells for a vehicle control. C75 is run at 5 and 10 μg/ml in triplicate as positive controls. After 4 hours of incubation, 0.25 μCi of [^14C]acetate (10 μl volume) is added to each well.
After 2 hours of additional incubation, medium is aspirated from the wells and 800 μl of chloroform:methanol (2:1) and 700 μl of 4 mM MgCl2 is added to each well. Contents of each well are transferred to 1.5 Eppendorf tubes, and spun at full-speed for 2 minutes in a high-speed Eppendorf Microcentrifuge 5415D. After removal of the aqueous (upper) layer, an additional 700 μl of chloroform:methanol (2:1) and 500 μl of 4 mM MgCl2 are added to each tube and then centrifuged for 1 minutes as above. The aqueous layer is removed with a Pasteur pipette and discarded. An additional 400 μl of chloroform:methanol (2:1) and 200 μl of 4 mM MgCl2 are added to each tube, then centrifuged and aqueous layer is discarded. The lower (organic) phase is transferred into a scintillation vial and dried at 40° C. under N2 gas. Once dried, 3 ml of scintillant (APB #NBC5104) is added and vials are counted for ^14C. The Beckman Scintillation counter calculates the average cpm values for triplicates.
The IC50 for the compounds is defined as the concentration of drug leading to a 50% reduction in [^14C]acetate incorporation into lipids compared to controls. This is determined by plotting the average cpm for each inhibitor concentration tested, performing linear regression and computing the best-fit line, r^2 values, and 95% confidence intervals. The average cpm values are computed by the Beckman scintillation counter (Model LS6500) for each compound concentration. Computation of linear regression, best-fit line, r^2, and 95% confidence intervals are calculated using Prism Version 3.0 (Graph Pad Software).

[2] = system: MCF-7 human breast cancer cells; assay: XTT cytotoxicity assay, MCF-7 (M); type: cell-based; conditions: Homo sapiens, MCF7; (M) or no code; MCF-7, 72 hours
Procedure: The XTT assay is a non-radioactive alternative for the [^51Cr] release cytotoxicity assay. XTT is a tetrazolium salt that is reduced to a formazan dye only by metabolically active, viable cells. The reduction of XTT is measured spectrophotometrically as OD490-OD650.
To measure the cytotoxicity of specific compounds against cancer cells, 9×10^3 MCF-7 human breast cancer cells, obtained from the American Type Culture Collection are plated per well in 96 well plates in DMEM medium with 10% fetal bovine serum, insulin, penicillin, and streptomycin. Following overnight culture at 37° C. and 5% CO2, the compounds to be tested, dissolved in DMSO, are added to the wells in 1 μl volume at the following concentrations: 80, 40, 20, 10, 5, 2.5, 1.25, and 0.625 μg/ml in triplicate. Additional concentrations are tested if required. 1 μl of DMSO is added to triplicate wells are the vehicle control. C75 is run at 40, 20, 10, […], 10, and 5 in triplicate as positive controls.
After 72 hours of incubation, cells are incubated for 4 hours with the XTT reagent as per manufacturer's instructions (Cell Proliferation Kit II (XTT) Roche). Plates are read at OD490 and OD650 on a Molecular Devices SpectraMax Plus Spectrophotometer. Three wells containing the XTT reagent without cells serve as the plate blank. XTT data are reported as OD490-OD650. Averages and standard error of the mean are computed using SOFTmax Pro software ([…]).
The IC50 for the compounds is defined as the concentration of drug leading to a 50% reduction in OD400-OD650 compared to controls. The OD400-OD650 are computed by the SOFTmax PRO software (Molecular Devices) for each compound concentration. IC50 is calculated by linear regression, plotting the FAS activity as percent of control versus drug concentrations. Linear regression, best-fit line, r^2, and 95% confidence intervals are determined using Prism Version 3.0 (Graph Pad Software).

H = assay: Crystal violet cell growth assay, H; type: cell-based; conditions: read-out: Cr. Violet (IC50)
Procedure: Crystal Violet Cell Growth Assay
The crystal violet assay measure cell growth but not cytotoxicity. This assay employs crystal violet staining of fixed cells in 96-well plates with subsequent solubilization and measurement of OD490 on a spectrophotometer. The OD490 corresponds to cell growth per unit time measured. Cells are treated with the compounds of interest or vehicle controls and IC50 for each compound is computed.
To measure the cytotoxicity of specific compounds against cancer cells, 5×10^4 MCF-7 human breast cancer cells, obtained from the American Type Culture Collection are plated per well in 24 well plates in DMEM medium with 10% fetal bovine serum, penicillin, and streptomycin. Following overnight culture at 37° C. and 5% CO2, the compounds to be tested, dissolved in DMSO, are added to the wells in 1 μl volume at the following concentrations: 50, 40, 30, 20, and 10 μg/ml in triplicate. Additional concentrations are tested if required. 1 μl of DMSO is added to triplicate wells are the vehicle control. C75 is run at 10, and 5 μg/ml in triplicate as positive controls.
After 72 hours of incubation, cells are stained with 0.5 ml of Crystal Violet stain (0.5% in 25% methanol) in each well. After 10 minutes, wells are rinsed, air dried, and then solubilized with 0.5 ml 10% sodium dodecylsulfate with shaking for 2 hours. Following transfer of 100 μl from each well to a 96-well plate, plates are read at OD490 on a Molecular Devices SpectraMax Plus Spectrophotometer Average OD490 values are computed using SOFTmax Pro Software (Molecular Devices) and IC50 values are determined by linear regression analysis using Prism version 3.02 (Graph Pad Software, San Diego).

OV = assay: XTT cytotoxicity assay, OV; type: cell-based
FAO = FAO SC 150 / FAO Max; conditions: for FAO Max: at the concentration given under E18

Question: With `CCCCCCCCC1(C)SC(=O)C=C1OCC(=O)NNc1nc2ccccc2s1` (single isomer, unassigned) [Compound 17, (5-Methyl-5-octyl-2-oxo-thiophen-4-yloxy)-acetic-acid-N′-(2-benzothiazole)-hydrazide] as the compound, how does the IC50 [1] read?
Answer: > 80 µg/mL

Question: What about the IC50 [2] of the same compound?
Answer: 74 µg/mL (≈ 165 µM)

Question: And the IC50 (H)?
Answer: 17.8 µg/mL (≈ 39.8 µM)

Question: What about the IC50 (OV) of the same compound?
Answer: 38.7 µg/mL (≈ 86.5 µM)

Question: What about the “FAO Max: concentration at which the maximum was seen” value (from here on “FAO Max: concentration”) (FAO) of the same compound?
Answer: 6.25 µg/mL

Question: What about the “FAO SC 150” value (FAO) of the same compound?
Answer: 4.9 µg/mL

Question: What about the “FAO Max” value (FAO) of the same compound?
Answer: 167% @

Question: What does the source list for `CCCCCCCCC1(C)SC(=O)C=C1OCC(=O)NNc1ccccc1` (stereo not drawn) [Compound 10, (5-Methyl-5-octyl-2-oxo-thiophen-4-yloxy)-acetic-acid-N′-phenylhydrazide]?
Answer: IC50 [1]: 7.2 µg/mL (≈ 18.4 µM); IC50 [2]: 6.9 µg/mL (≈ 17.7 µM); IC50 (H): 8.4 µg/mL (≈ 21.5 µM); IC50 (OV): 13.2 µg/mL (≈ 33.8 µM); FAO Max: concentration at which the maximum was seen (FAO): 6.25 µg/mL; FAO SC 150 (FAO): Neg; FAO Max (FAO): 126% at

Question: What does the source list for `CCCCCCCCC1(C)SC(=O)C=C1OCC(=O)NNc1cccc(C)c1` (stereo not drawn) [Compound 11, (5-Methyl-5-octyl-2-oxo-thiophen-4-yloxy)-acetic-acid-N′-(3-methylphenyl)-hydrazide]?
Answer: IC50 [1]: 12 µg/mL (≈ 29.7 µM); IC50 [2]: 9 µg/mL (≈ 22.2 µM); IC50 (H): 21.9 µg/mL (≈ 54.1 µM); IC50 (OV): 10.1 µg/mL (≈ 25 µM); FAO Max: concentration at which the maximum was seen (FAO): 1.56 µg/mL; FAO SC 150 (FAO): Neg; FAO Max (FAO): 116% @

Question: `CCCCCCCCC1(C)SC(=O)C=C1OCC(=O)NNc1ccc(OC)cc1` (stereo not drawn) [Compound 13, (5-Methyl-5-octyl-2-oxo-thiophen-4-yloxy)-acetic-acid-N′-(4-methoxyphenyl)-hydrazide] was tested. Which IC50 [1] did it give?
Answer: 21.3 µg/mL (≈ 50.6 µM)

Question: What about the IC50 [2] of the same compound?
Answer: 9 µg/mL (≈ 21.4 µM)

Question: What about the IC50 (H) of the same compound?
Answer: 12.3 µg/mL (≈ 29.2 µM)

Question: What about the IC50 (OV) of the same compound?
Answer: 18 µg/mL (≈ 42.8 µM)

Question: What about the “FAO Max: concentration” value (FAO) of the same compound?
Answer: 0.098 μg/ml ug/ml

Question: What about the “FAO SC 150” value (FAO) of the same compound?
Answer: Neg

Question: And the “FAO Max” value (FAO)?
Answer: 103% at

Question: Which results are given for `CCCCCCCCC1(C)SC(=O)C=C1OCC(=O)NNc1ccc(Cl)cc1Cl` (stereo not drawn) [Compound 14, (5-Methyl-5-octyl-2-oxo-thiophen-4-yloxy)-acetic-acid-N′-(2,4-dichlorophenyl)-hydrazide]?
Answer: IC50 [1]: 18.3 µg/mL (≈ 39.8 µM); IC50 [2]: 6.9 µg/mL (≈ 15 µM); IC50 (H): 7.3 µg/mL (≈ 15.9 µM); IC50 (OV): 12.8 µg/mL (≈ 27.9 µM); FAO Max: concentration at which the maximum was seen (FAO): 0.098 μg/ml ug/ml; FAO SC 150 (FAO): Neg; FAO Max (FAO): 100% at

Question: Which IC50 [1] does the source give for `CCCCCCCCC1(C)SC(=O)C=C1OCC(=O)NNc1ccc(Cl)c(Cl)c1` (stereo not drawn) [Compound 15, (5-Methyl-5-octyl-2-oxo-thiophen-4-yloxy)-acetic-acid-N′-(3,4-dichlorophenyl)-hydrazide] here?
Answer: 13.3 µg/mL (≈ 28.9 µM)

Question: What about the IC50 [2] of the same compound?
Answer: 11.4 µg/mL (≈ 24.8 µM)

Question: And the IC50 (H)?
Answer: 8.5 µg/mL (≈ 18.5 µM)

Question: What about the IC50 (OV) of the same compound?
Answer: 15.2 µg/mL (≈ 33.1 µM)

Question: What about the “FAO Max: concentration” value (FAO) of the same compound?
Answer: 0.395 μg/ml ug/ml

Question: And the “FAO SC 150” value (FAO)?
Answer: Neg

Question: What about the “FAO Max” value (FAO) of the same compound?
Answer: 100% at
